Source: patent US6737383B1, “Herbicidal oxadiazolidines” (priority 1999, dated 2004)

Key:
smallflower flatsedge = test: Test B flood test smallflower flatsedge; format: in vivo, Cyperus difformis
Outline: (§1)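 Plants were grown to the 2-leaf stage before treatment with test chemical, then held in a greenhouse for twelve to sixteen days. Injury was visually rated against untreated controls on a 0–10 scale, where 0 is no effect and 10 is complete control.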

soybean = test: Test B pre/postemergence soybean; format: in vivo, Glycine max; details: for Soybean plant response rating: scale of 0 to 10 where 0 is no effect and 10 is complete control
Outline: (§2)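 Response is a visual 0-to-10 score relative to untreated plants, where 0 means no effect and 10 means complete control, taken twelve to sixteen days after application. Treatments went onto soil at planting and onto foliage of 1- to 4-leaf plants, using a surfactant-containing non-phytotoxic solvent.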

purple nutsedge = test: Test B pre/postemergence purple nutsedge; format: in vivo, Cyperus rotundus; details: for Nutsedge plant response rating: scale of 0 to 10 where 0 is no effect and 10 is complete control
Outline: as §2

bamyardgrass = test: Test B flood test barnyardgrass; format: in vivo, Echinochloa crus-galli
Outline: as §1

blackgrass = test: Test B pre/postemergence blackgrass; format: in vivo, Alopecurus myosuroides
Outline: as §2

wheat = test: Test B pre/postemergence wheat; format: in vivo, Triticum aestivum; details: for Wheat plant response rating: scale of 0 to 10 where 0 is no effect and 10 is complete control
Outline: as §2

crabgrass = test: Test B pre/postemergence crabgrass; format: in vivo, Digitaria sanguinalis; details: for Crabgrass plant response rating: scale of 0 to 10 where 0 is no effect and 10 is complete control
Outline: as §2

corn = test: Test B pre/postemergence corn; format: in vivo, Zea mays; details: for Corn plant response rating: scale of 0 to 10 where 0 is no effect and 10 is complete control
Outline: as §2

morningglory = test: Test B pre/postemergence morningglory; format: in vivo, Ipomoea hederacea; details: for Morningglory plant response rating: scale of 0 to 10 where 0 is no effect and 10 is complete control
Outline: as §2

velvetleaf = test: Test B pre/postemergence velvetleaf; format: in vivo, Abutilon theophrasti; details: for Velvetleaf plant response rating: scale of 0 to 10 where 0 is no effect and 10 is complete control
Outline: as §2

wild oat = test: Test B pre/postemergence wild oat; format: in vivo, Avena fatua; details: for Wild oats plant response rating: scale of 0 to 10 where 0 is no effect and 10 is complete control
Outline: as §2

pigweed = test: Test B pre/postemergence pigweed; format: in vivo, Amaranthus retroflexus; details: for Redroot pigweed plant response rating: scale of 0 to 10 where 0 is no effect and 10 is complete control
Outline: as §2

rice = test: Test B flood test rice; format: in vivo, Oryza sativa
Outline: as §1

duck salad = test: Test B flood test duck salad; format: in vivo, Heteranthera limosa
Outline: as §1

rape = test: Test B pre/postemergence rape; format: in vivo, Brassica napus; details: for Rape plant response rating: scale of 0 to 10 where 0 is no effect and 10 is complete control
Outline: as §2

bedstraw = test: Test B pre/postemergence bedstraw; format: in vivo, Galium aparine
Outline: as §2

giant foxtail = test: Test B pre/postemergence giant foxtail; format: in vivo, Setaria faberii; details: for Giant foxtail plant response rating: scale of 0 to 10 where 0 is no effect and 10 is complete control
Outline: as §2

cocklebur = test: Test B pre/postemergence cocklebur; format: in vivo, Xanthium strumarium; details: for Cocklebur plant response rating: scale of 0 to 10 where 0 is no effect and 10 is complete control
Outline: as §2

surinam grass = test: Test B pre/postemergence surinam grass; format: in vivo, Brachiaria decumbens
Outline: as §2

sugar beet = test: Test B pre/postemergence sugar beet; format: in vivo, Beta vulgaris; details: for Sugarbeets plant response rating: scale of 0 to 10 where 0 is no effect and 10 is complete control
Outline: as §2

[1] = Postemergence (flood test), Rate 125 g/ha, scale 0 to 10, 0 is no effect, 10 is complete control
[2] = Rate 500 g/ha, listed under Postemergence (flood test species), scale 0 to 10, 0 no effect, 10 complete control
[3] = Postemergence, Rate 125 g/ha, scale 0 to 10, 0 is no effect, 10 is complete control
[4] = Preemergence, Rate 62 g/ha, scale 0 to 10 (0 no effect, 10 complete control)
[5] = Rate 500 g/ha, Postemergence, scale 0 to 10, 0 no effect, 10 complete control
[6] = Preemergence, Rate 250 g/ha, scale of 0 to 10 where 0 is no effect and 10 is complete control
[7] = Preemergence, Rate 500 g/ha, scale of 0 to 10 where 0 is no effect and 10 is complete control
[8] = Rate 62 g/ha, Postemergence, scale of 0 to 10 where 0 is no effect and 10 is complete control
[9] = Rate 250 g/ha, Postemergence, scale of 0 to 10 where 0 is no effect and 10 is complete control

CC(C)C(C)n1c(=O)on(C(=O)N(c2ccc(F)cc2F)C(C)C)c1=O (centres unmarked) [Compound 356]
1: Plant response rating, Velvetleaf (velvetleaf; [4]) | Plant response rating, B. signalgrass (surinam grass; [9]) | Plant response rating, B. signalgrass (surinam grass; [5])
2: Soybean plant response rating (soybean; Rate 62 g/ha, Postemergence) | Wheat plant response rating (wheat; Rate 62 g/ha, Postemergence) | Corn plant response rating (corn; Preemergence, Rate 250 g/ha) | Velvetleaf plant response rating (0 to 10 scale) (velvetleaf; Preemergence, Rate 125 g/ha) | Wild oats plant response rating (wild oat; Rate 62 g/ha, Postemergence) | Plant response rating, Ducksalad (duck salad; [2]) | Rape plant response rating (0 to 10 scale) (rape; Preemergence, Rate 125 g/ha) | Giant foxtail plant response rating (giant foxtail; Rate 62 g/ha, Postemergence) | Sugarbeets plant response rating (sugar beet; Preemergence, Rate 250 g/ha)
8: Crabgrass plant response rating (0 to 10 scale) (crabgrass; Preemergence, Rate 125 g/ha) | Redroot pigweed plant response rating (pigweed; Preemergence, Rate 250 g/ha) | Plant response rating, Giant foxtail (giant foxtail; [5])
10: Crabgrass plant response rating (crabgrass; Preemergence, Rate 500 g/ha) | Plant response rating, Morningglory (morningglory; [5]) | Wild oats plant response rating (wild oat; Preemergence, Rate 250 g/ha) | Redroot pigweed plant response rating (pigweed; Preemergence, Rate 500 g/ha) | Plant response rating, Giant foxtail (giant foxtail; [4]) | Giant foxtail plant response rating (0 to 10 scale) (giant foxtail; Preemergence, Rate 125 g/ha) | Giant foxtail plant response rating (giant foxtail; Preemergence, Rate 250 g/ha) | Giant foxtail plant response rating (giant foxtail; Preemergence, Rate 500 g/ha)
6: Plant response rating, Blackgrass (blackgrass; [3]) | Blackgrass plant response rating (0 to 10 scale) (blackgrass; Preemergence, Rate 125 g/ha) | Plant response rating, Blackgrass (blackgrass; [9]) | Wheat plant response rating (wheat; Preemergence, Rate 500 g/ha) | Corn plant response rating (corn; Preemergence, Rate 500 g/ha) | Plant response rating, Morningglory (morningglory; [3])
5: Plant response rating, Soybean (soybean; [5]) | Plant response rating, Blackgrass (blackgrass; [4]) | Velvetleaf plant response rating (velvetleaf; Preemergence, Rate 500 g/ha) | Plant response rating, Wild oats (wild oat; [4]) | Rape plant response rating (rape; Preemergence, Rate 500 g/ha) | B. signalgrass plant response rating (surinam grass; [6]) | B. signalgrass plant response rating (surinam grass; [7]) | Sugarbeets plant response rating (sugar beet; Preemergence, Rate 500 g/ha)
0: Plant response rating, Soybean (soybean; [4]) | Soybean plant response rating (0 to 10 scale) (soybean; Preemergence, Rate 125 g/ha) | Soybean plant response rating (soybean; Preemergence, Rate 250 g/ha) | Soybean plant response rating (soybean; Preemergence, Rate 500 g/ha) | Plant response rating, Nutsedge (purple nutsedge; [3]) | Plant response rating, Nutsedge (purple nutsedge; [4]) | Nutsedge plant response rating (0 to 10 scale) (purple nutsedge; Preemergence, Rate 125 g/ha) | Nutsedge plant response rating (purple nutsedge; Preemergence, Rate 250 g/ha) | Nutsedge plant response rating (purple nutsedge; Preemergence, Rate 500 g/ha) | Nutsedge plant response rating (purple nutsedge; Rate 62 g/ha, Postemergence) | Plant response rating, Nutsedge (purple nutsedge; [5]) | Plant response rating, Barnyardgrass (bamyardgrass; [1]) | Plant response rating, Wheat (wheat; [4]) | Wheat plant response rating (0 to 10 scale) (wheat; Preemergence, Rate 125 g/ha) | Wheat plant response rating (wheat; Preemergence, Rate 250 g/ha) | Plant response rating, Crabgrass (crabgrass; [3]) | Crabgrass plant response rating (crabgrass; Rate 62 g/ha, Postemergence) | Plant response rating, Corn (corn; [3]) | Plant response rating, Corn (corn; [4]) | Corn plant response rating (0 to 10 scale) (corn; Preemergence, Rate 125 g/ha) | Corn plant response rating (corn; Rate 62 g/ha, Postemergence) | Plant response rating, Morningglory (morningglory; [4]) | Morningglory plant response rating (0 to 10 scale) (morningglory; Preemergence, Rate 125 g/ha) | Morningglory plant response rating (morningglory; Preemergence, Rate 250 g/ha) | Morningglory plant response rating (morningglory; Preemergence, Rate 500 g/ha) | Plant response rating, Velvetleaf (velvetleaf; [3]) | Velvetleaf plant response rating (velvetleaf; Rate 62 g/ha, Postemergence) | Plant response rating, Velvetleaf (velvetleaf; [5]) | Plant response rating, Redroot pigweed (pigweed; [3]) | Plant response rating, Redroot pigweed (pigweed; [4]) | Redroot pigweed plant response rating (pigweed; Rate 62 g/ha, Postemergence) | Plant response rating, Redroot pigweed (pigweed; [5]) | Plant response rating, Rice (rice; [1]) | Rice plant response rating (rice; Rate 62 g/ha, Postemergence (flood test species), scale of 0 to 10 where 0 is no effect and 10 is complete control) | Plant response rating, Rice (rice; [2]) | Plant response rating, Ducksalad (duck salad; [1]) | Plant response rating, Rape (rape; [3]) | Plant response rating, Rape (rape; [4]) | Rape plant response rating (rape; Rate 62 g/ha, Postemergence) | Plant response rating, Rape (rape; [5]) | Plant response rating, Bedstraw (bedstraw; [3]) | Plant response rating, Bedstraw (bedstraw; [4]) | Bedstraw plant response rating (0 to 10 scale) (bedstraw; Preemergence, Rate 125 g/ha) | Bedstraw plant response rating (bedstraw; [8]) | Plant response rating, Cocklebur (cocklebur; [3]) | Cocklebur plant response rating (0 to 10 scale) (cocklebur; Preemergence, Rate 125 g/ha) | Cocklebur plant response rating (cocklebur; Preemergence, Rate 250 g/ha) | Cocklebur plant response rating (cocklebur; Preemergence, Rate 500 g/ha) | Cocklebur plant response rating (cocklebur; Rate 62 g/ha, Postemergence) | Plant response rating, Cocklebur (cocklebur; [5]) | Plant response rating, B. signalgrass (surinam grass; [3]) | Plant response rating, B. signalgrass (surinam grass; [4]) | B. signalgrass plant response rating (surinam grass; [8]) | Plant response rating, Sugarbeets (sugar beet; [3]) | Plant response rating, Sugarbeets (sugar beet; [4]) | Sugarbeets plant response rating (0 to 10 scale) (sugar beet; Preemergence, Rate 125 g/ha) | Sugarbeets plant response rating (sugar beet; Rate 62 g/ha, Postemergence) | Plant response rating, Sugarbeets (sugar beet; [5])
4: Plant response rating, S. Flatsedge (smallflower flatsedge; [1]) | Plant response rating, Wheat (wheat; [5]) | Morningglory plant response rating (morningglory; Rate 62 g/ha, Postemergence) | Redroot pigweed plant response rating (0 to 10 scale) (pigweed; Preemergence, Rate 125 g/ha) | Rape plant response rating (rape; Preemergence, Rate 250 g/ha) | Plant response rating, Giant foxtail (giant foxtail; [3])
3: Plant response rating, Soybean (soybean; [3]) | Blackgrass plant response rating (blackgrass; [8]) | Plant response rating, Wheat (wheat; [3]) | Plant response rating, Crabgrass (crabgrass; [5]) | Plant response rating, Corn (corn; [5]) | Velvetleaf plant response rating (velvetleaf; Preemergence, Rate 250 g/ha) | Plant response rating, Wild oats (wild oat; [3]) | Plant response rating, Wild oats (wild oat; [5]) | Plant response rating, Bedstraw (bedstraw; [9]) | Plant response rating, Bedstraw (bedstraw; [5]) | B. signalgrass plant response rating (0 to 10 scale, 0 is no effect, 10 is complete control) (surinam grass; Preemergence, Rate 125 g/ha)
7: Plant response rating, S. Flatsedge (smallflower flatsedge; [2]) | Plant response rating, Barnyardgrass (bamyardgrass; Rate 250 g/ha, Postemergence (flood test species), scale of 0 to 10 where 0 is no effect and 10 is complete control) | Plant response rating, Barnyardgrass (bamyardgrass; [2]) | Plant response rating, Blackgrass (blackgrass; [5]) | Plant response rating, Crabgrass (crabgrass; [4]) | Wild oats plant response rating (0 to 10 scale) (wild oat; Preemergence, Rate 125 g/ha)
9: Blackgrass plant response rating (blackgrass; [6]) | Blackgrass plant response rating (blackgrass; [7]) | Crabgrass plant response rating (crabgrass; Preemergence, Rate 250 g/ha) | Bedstraw plant response rating (bedstraw; [7])
